In PMC5322520, “TubZ filament assembly dynamics requires the flexible C-terminal tail” (Scientific Reports, 2017):

Columns and labels:
CbTubZ316 = biological target: T1, CbTubZ316 (Clostridium phage c-st, UniProt Q331T7); settings: nucleotide-binding pocket; crystals at pH 5.5, 22 °C
T1 construct: gene tubZ

BtTubZ = biological target: T2, BtTubZ (Bacillus thuringiensis, UniProt Q8KNP3); assay: HPLC of polymer-bound nucleotide; assay type: biochemical
T2 construct: gene tubZ; construct not described in main text; filaments
T2 sequence (Q8KNP3 whole entry): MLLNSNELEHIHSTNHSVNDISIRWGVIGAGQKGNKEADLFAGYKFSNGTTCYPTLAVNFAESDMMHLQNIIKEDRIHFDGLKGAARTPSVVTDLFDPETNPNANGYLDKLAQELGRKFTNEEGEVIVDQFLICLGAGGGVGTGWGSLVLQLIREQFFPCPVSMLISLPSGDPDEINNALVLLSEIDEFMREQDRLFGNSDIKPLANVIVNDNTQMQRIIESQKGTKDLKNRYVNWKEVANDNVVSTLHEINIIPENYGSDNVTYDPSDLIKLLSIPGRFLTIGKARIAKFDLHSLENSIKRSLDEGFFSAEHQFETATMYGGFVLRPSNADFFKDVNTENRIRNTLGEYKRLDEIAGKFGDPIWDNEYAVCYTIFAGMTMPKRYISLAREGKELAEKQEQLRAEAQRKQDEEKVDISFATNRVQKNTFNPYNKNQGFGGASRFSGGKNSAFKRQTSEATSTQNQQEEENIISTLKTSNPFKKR

T1 sequence (Q331T7 1-316 limits assumed): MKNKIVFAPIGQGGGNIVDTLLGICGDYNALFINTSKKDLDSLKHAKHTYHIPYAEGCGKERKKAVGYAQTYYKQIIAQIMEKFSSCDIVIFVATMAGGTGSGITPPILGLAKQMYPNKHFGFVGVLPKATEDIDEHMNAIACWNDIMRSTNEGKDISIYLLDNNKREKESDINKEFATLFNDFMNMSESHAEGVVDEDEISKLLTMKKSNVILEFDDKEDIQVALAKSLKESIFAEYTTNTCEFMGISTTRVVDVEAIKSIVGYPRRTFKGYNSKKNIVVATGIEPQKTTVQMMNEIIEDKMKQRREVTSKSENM

SMILES: Nc1nc2c(ncn2[C@@H]2O[C@H](COP(=O)(O)OP(=O)(O)O)[C@@H](O)[C@H]2O)c(=O)[nH]1 [GDP]
- X-ray crystal structure, 2.4 Å (CbTubZ316): TubZ316 displays GDP at the nucleotide-binding pocket

SMILES: Nc1nc2c(ncn2[C@@H]2O[C@H](COP(=O)(O)OP(=O)(O)OP(O)(O)=S)[C@@H](O)[C@H]2O)c(=O)[nH]1 [GTP-γ-S]
- HPLC of polymer-bound nucleotide (BtTubZ; filaments assembled with GTP-γ-S): nucleotide content of BtTubZ filaments assembled with GTP- γ-S and GTP

SMILES: Nc1nc2c(ncn2[C@@H]2O[C@H](COP(=O)(O)OP(=O)(O)OP(=O)(O)O)[C@@H](O)[C@H]2O)c(=O)[nH]1 [GTP]
- HPLC of polymer-bound nucleotide (BtTubZ; filaments assembled with GTP): nucleotide content of BtTubZ filaments assembled with GTP- γ-S and GTP
